Test results reported in patent EP3851097A1, “CONTROLLED RELEASE FORMULATIONS” (Universidad De Zaragoza, priority 2020, dated 2021).

Experiment: Ocular tissue pharmacokinetics of dexamethasone after intravitreal injection (HPLC)
Details: vitreous humor
Experimental: Previously, a paracentesis in the anterior chamber was performed using a 30-gauge hypodermic needle with removal of aqueous humor, to avoid an intraocular pressure elevation.
Thirty female NZ albino rabbits were used for this study: fifteen for SCS group (50 µL-DEX/LAP suspension) and other fifteen for IVT group (100 µL).
After administration of DEX/LAP suspension (10 mg/mL, 1:10 w/w), the rabbits were sacrificed for sampling eye tissues and subsequent ocular PK studies. Three animals were used for each sampling time point at 1, 7, 28, 84 and 168 days. A rapid intravenous injection of sodium pentobarbital (30 mg/kg) through the ear vein was performed and immediately after euthanasia, ocular tissues were collected. Following eye enucleation, the globes were snap-frozen (-40°C) and specimens were obtained by eye dissection (vitreous, lens, sclera and chorio-retina compound). DEX concentrations in ocular tissues were determined using a simple and easily accessible method by HPLC-Mss, according to the methodology described by our group in a previous study.
The determination of DEX was carried out by HPLC-Mss method in a Waters 2695 system equipped with a Phenomenex Kinetex C18 column (75 mm × 4.6 mm × 2.6 µm) coupled to a Waters 2995 PDA detector. The mobile phase was acetonitrile/water (35:65 v/v) pumped at a flow rate of 0.2 mL/min at 35°C. Detection at 250 nm was used. The amount of DEX was calculated by a seven point calibration curve against 6-α-methylprednisolone as internal standard. Aliquots of the extraction medium (200 µL) were mixed with acetonitrile (2 mL) and 100 µL of a standard solution (20 ppm in acetonitrile). The solution was then vortexed for 1 min and sonicated for 5 min to ensure the complete mixing, and finally centrifuged at 3000 rpm for 5 min. The supernatant was collected and evaporated under vacuum, and then dissolved in 200 µL of acetonitrile, filtered through a 0.22 µm PTFE syringe filter and analyzed.
PK data were analyzed for the best fit and were consequently modelled according to compartmental models using Microsoft Excel's "PKSolver Add-in" (Albuquerque, NM, USA), in which equations describing concentration as a function of time are used. The following PK parameters were obtained: peak concentration (Cmax), time to peak concentration (Tmax), elimination half-life (T½).
To describe the time course-concentration after administration the following equation was used: Ctissue = C0 ∗e^(−Ke t) [formula] where C is the tissue concentration, C0 is the concentration at time to, Ke is the elimination rate constant which is derived from the elimination half-life of the drug (Ke= 0.693/T1/2).

[1] = 100 µL intravitreal administration

SMILES: C[C@@H]1C[C@H]2[C@@H]3CCC4=CC(=O)C=C[C@]4(C)[C@@]3(F)[C@@H](O)C[C@]2(C)[C@@]1(O)C(=O)CO [DEX solution, Dexamethasone]
- AUC0-∞ [1]: 317.17 ng·days/g
- C0 [1]: 1737.71 ng/g
- Cl [1]: 315.29 g/day
- Ke [1]: 5.48 day⁻¹
- clearance (CL) (intravitreal injection): 315.29 g/day
